Experimental findings from patent publication US20240360154A1, “AROYL SUBSTITUTED TRICYCLIC COMPOUND, PREPARATION METHOD THEREFOR AND USE THEREOF” (GENFLEET THERAPEUTICS (SHANGHAI) INC., priority 2020, published 2024) are described below.

pIC50: −log10 of the molar value. Structures can show the parent of a compound that is named as a salt.

Broadly, the pIC50 is the negative decadic logarithm of the IC50, by convention in mol/L.

One assay concerns TMD-8 cells. Briefly: TMD-8 proliferation inhibition experiment. In kind it is cell-based. The conditions noted are these: human diffuse large B lymphoma cells, three days incubation. Here is the method:
TMD-8 cells are human diffuse large B lymphoma (Mingzhou Bio, MZ-0832), cultured in 10% FBS+1% PS 1640 medium; OCI-LY10 is human diffuse large B lymphoma (BeNa Culture Collection, BNCC337742), cultured in 10% FBS+1% PS IMDM. Day 1: Cells at logarithmic growth phase were taken, counted and inoculated 600 TMD-8 or 2000 OCI-LY10 cells in a 384-well cell culture plate and cultured overnight. Day 2: A 3-fold gradient concentration stock solution of 400× compound was prepared with DMSO, and diluted 40-fold to a 10× compound stock solution with culture medium. The 10× compound stock solution was added to each cell culture well with a final concentration of 1× compound stock solution and a DMSO content of 0.25%. DMSO was used as experimental control, and culture medium was used as blank control. The incubation was continued for three days after compound addition. On the fifth day, 25 μL of […] was added to each well, mixed well and incubated for 10 minutes, then the chemiluminescence value (RLU value) was read. The cell proliferation inhibition rate (%)=(RLUcontrol−RLUcompound)/(RLUcontrol−RLUblank)×100% was calculated. The compound gradient dilution concentration and the corresponding cell proliferation inhibition rate were fit by using XLFit four-parameter method, and IC50 value was calculated.

The target of the next assay is BTK (Homo sapiens (Human), UniProt Q06187). The assay can be described thus: BTK enzyme experiment (ADP-Glo kinase assay). In kind it is biochemical. The conditions noted are these: 10 nM BTK, ATP 125 μM, Poly(Glu4, Tyr1), 90 minutes at 20° C.; read-out: BTK(WT) IC50. The method in brief: (§1)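 Wild-type or C481S BTK, added as 2× solution at 10 nM, preincubated 10 min with 3-fold compound dilutions in 50 mM HEPES pH 7.5, 10 mM MgCl2, 2 mM DTT, 0.0015% Brij-35. ADP-Glo luminescence norm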
Background: ADP-Glo turns the ADP formed in a reaction into a luminescent signal.

The target of the next assay is BTK (C481S) (Homo sapiens (Human), UniProt Q06187, C481S). The assay can be described thus: BTK C481S enzyme experiment (ADP-Glo kinase assay). The format is biochemical. To be noted: 10 nM BTK C481S, ATP 125 μM, Poly(Glu4, Tyr1), 90 minutes at 20° C. The method in brief:
as §1

Sequence of BTK (Q06187 whole entry): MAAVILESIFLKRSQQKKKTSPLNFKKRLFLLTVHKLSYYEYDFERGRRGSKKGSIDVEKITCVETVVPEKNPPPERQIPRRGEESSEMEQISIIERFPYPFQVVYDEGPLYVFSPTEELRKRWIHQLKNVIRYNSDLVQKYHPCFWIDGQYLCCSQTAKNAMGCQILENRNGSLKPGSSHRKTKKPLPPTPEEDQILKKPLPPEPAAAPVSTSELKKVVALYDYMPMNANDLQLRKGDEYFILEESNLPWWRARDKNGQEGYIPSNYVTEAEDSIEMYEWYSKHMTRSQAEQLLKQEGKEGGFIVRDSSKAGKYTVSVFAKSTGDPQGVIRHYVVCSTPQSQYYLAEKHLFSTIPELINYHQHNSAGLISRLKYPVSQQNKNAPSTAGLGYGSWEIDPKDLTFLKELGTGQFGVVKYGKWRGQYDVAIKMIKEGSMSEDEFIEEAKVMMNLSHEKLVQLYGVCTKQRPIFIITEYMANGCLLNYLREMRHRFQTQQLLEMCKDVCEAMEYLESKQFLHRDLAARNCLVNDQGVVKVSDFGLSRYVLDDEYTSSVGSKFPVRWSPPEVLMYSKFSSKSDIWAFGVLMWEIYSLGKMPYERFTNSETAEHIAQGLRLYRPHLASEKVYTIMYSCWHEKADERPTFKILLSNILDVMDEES
Sequence of BTK (C481S) (Q06187 whole entry C481S): as the sequence (Q06187 whole entry) above, with C481S counted along it

Turning to `O=C(c1ccc(Oc2ccccc2)cc1Cl)c1c[nH]c2ncc3c(c12)NC1(CCOC1)C(=O)N3` (stereo not drawn) [Z1, 9′-(2-chloro-4-phenoxybenzoyl)-4,4′,5,7′-tetrahydro-2H-spiro[furan-3,2′-pyrrolo[3′,2′:5,6]pyrido[3,4-b]pyrazin]-3′(1′H)-one], the pIC50 in the assay on TMD-8 cells (Homo sapiens, TMD8, 72 h) is 6.81; on BTK it was 7.39; against BTK (C481S) it was 7.72.
As to `CN1CCC2(C1)Nc1c(cnc3[nH]cc(C(=O)c4ccc(Oc5ccccc5F)cc4Cl)c13)NC2=O` (stereo not drawn) [Z6], the negative-log IC50 (pIC50) is 6.82 in the assay on TMD-8 cells, 7.71 at BTK and 7.85 against BTK (C481S).
Regarding `CN1CCC2(C1)Nc1c(cnc3[nH]cc(C(=O)c4ccc(Oc5cccc(F)c5)cc4Cl)c13)NC2=O` (stereo not drawn) [Z7], the pIC50 in the assay on TMD-8 cells was 6.59; at BTK, 7.55; against BTK (C481S), 7.75.
As for `CN1CCC2(C1)Nc1c(cnc3[nH]cc(C(=O)c4ccc(Oc5ccccc5)cc4Cl)c13)N(C)C2=O` (stereo not drawn) [Z8], the negative logarithm of the IC50 (pIC50) in the assay on TMD-8 cells is 6.33; at BTK, 7.13; against BTK (C481S), 7.55.
For the compound `O=C(c1ccc(Oc2ccccc2)cc1Cl)c1c[nH]c2ncc3c(c12)NC1(CCN(C(=O)C2CC2)C1)C(=O)N3` (stereo not drawn) [Z10], the pIC50 in the assay with TMD-8 cells is 6.51; on BTK, 7.15; against BTK (C481S) it was 7.60.
Turning to `CN1CC2(C1)Nc1c(cnc3[nH]cc(C(=O)c4ccc(Oc5ccccc5)cc4Cl)c13)NC2=O` [Z11, 9′-(2-chloro-4-phenoxybenzoyl)-1-methyl-4′,7′-dihydrospiro[azetidine-3,2′-pyrrolo[3′,2′:5,6]pyrido[3,4-b]pyrazin]-3′(1′H)-one], the pIC50 in the assay on TMD-8 cells (Homo sapiens, TMD8, 72 h) is 6.43; on BTK it was 7.26; against BTK (C481S), 7.67.
Regarding `CN1CCC2(C1)Nc1c(cnc3[nH]cc(C(=O)c4ccc(Oc5cc(C(F)(F)F)ccn5)cc4Cl)c13)NC2=O` (stereo not drawn) [Z12], the results for the pIC50 in the assay on TMD-8 cells, at BTK and against BTK (C481S) were 6.32, 7.58 and 7.34, respectively.
Turning to `COC[C@@]1(C)Nc2c(cnc3[nH]cc(C(=O)c4ccc(Oc5ccccc5)cc4Cl)c23)NC1=O` [Z13-2], the results for the pIC50 in the assay on TMD-8 cells, on BTK and at BTK (C481S) were 6.74, 7.40 and 7.63, respectively.
In the case of `CC1(C)Nc2c(cnc3[nH]cc(C(=O)c4ccc(Oc5ccccc5)cc4Cl)c23)N(CCO)C1=O` [Z15], the results for the pIC50 in the assay with TMD-8 cells, on BTK and at BTK (C481S) were 6.20, 7.24 and 7.14, respectively.
As to `COC1CCC2(C1)Nc1c(cnc3[nH]cc(C(=O)c4ccc(Oc5ccccc5)cc4Cl)c13)NC2=O` (stereo not drawn) [Z25, 9′-(2-chloro-4-phenoxybenzoyl)-3-methoxy-4′,7′-dihydrospiro[cyclopentane-1,2′-pyrrolo[3′,2′:5,6]pyrido[3,4-b]pyrazin]-3′(1′H)-one], the negative-log IC50 (pIC50) was 6.89 in the assay on TMD-8 cells (Homo sapiens, TMD8, 72 h); 8.22 on BTK; 8.31 on BTK (C481S).
Turning to `CN1C(=O)C(C)(CO)Nc2c1cnc1[nH]cc(C(=O)c3ccc(Oc4ccccc4)cc3Cl)c21` (stereo not drawn) [Z51, 9-(2-chloro-4-phenoxybenzoyl)-2-(hydroxymethyl)-2,4-dimethyl-1,2,4,7-tetrahydro-3H-pyrrolo[3′,2′:5,6]pyrido[3,4-b]pyrazin-3-one], the pIC50 in the assay with TMD-8 cells (Homo sapiens, TMD8, 72 h) was 6.59; at BTK it was 7.44; on BTK (C481S), 7.40.
`COCC1(C)Nc2c(cnc3[nH]cc(C(=O)c4ccc(Oc5cc(C)ccn5)cc4Cl)c23)N(C)C1=O` (stereo not drawn) [Z65, 9-(2-chloro-4-((4-methylpyridin-2-yl)oxy)benzoyl)-2-(methoxymethyl)-2,4-dimethyl-1,2,4,7-tetrahydro-3H-pyrrolo[3′,2′:5,6]pyrido[3,4-b]pyrazin-3-one formate]: the pIC50 in the assay with TMD-8 cells (Homo sapiens, TMD8, 72 h) is 6.29; at BTK it was 7.51; at BTK (C481S), 7.51.
With `[2H]C([2H])([2H])OCC1(C)Nc2c(cnc3[nH]cc(C(=O)c4ccc(Oc5ccccc5)cc4Cl)c23)NC1=O` (stereo not drawn) [Z66, 9-(2-chloro-4-phenoxybenzoyl)-2-((methoxy-d3)methyl)-2-methyl-1,2,4,7-tetrahydro-3H-pyrrolo[3′,2′:5,6]pyrido[3,4-b]pyrazin-3-one], the negative logarithm of the IC50 (pIC50) with TMD-8 cells (Homo sapiens, TMD8, 72 h) is 6.83; on BTK, 7.79; on BTK (C481S), 8.03.
For the compound `CCOCC1(C)Nc2c(cnc3[nH]cc(C(=O)c4ccc(Oc5ccccc5)cc4Cl)c23)NC1=O` (stereo not drawn) [Z67, 9-(2-chloro-4-phenoxybenzoyl)-2-(ethoxymethyl)-2-methyl-1,2,4,7-tetrahydro-3H-pyrrolo[3′,2′:5,6]pyrido[3,4-b]pyrazin-3-one], the negative logarithm of the IC50 (pIC50) in the assay with TMD-8 cells (Homo sapiens, TMD8, 72 h) is 6.58; at BTK, 7.40; against BTK (C481S), 7.74.
As for `COCC1(C)Nc2c(cnc3[nH]cc(C(=O)c4ccc(Oc5ccccc5)cc4F)c23)NC1=O` (stereo not drawn) [Z71], the negative-log IC50 (pIC50) with TMD-8 cells is 6.77; on BTK, 7.69; at BTK (C481S), 7.67.
With `Cc1ccnc(Oc2ccc(C(=O)c3c[nH]c4ncc5c(c34)NC3(CCOCC3)C(=O)N5C)c(Cl)c2)c1` [Z72, 9′-(2-chloro-4-((4-methylpyridin-2-yl)oxy)benzoyl)-4′-methyl-2,3,4′,5,6,7′-hexahydrospiro[pyran-4,2′-pyrrolo[3′,2′:5,6]pyrido[3,4-b]pyrazin]-3′(1′H)-one], the negative-log IC50 (pIC50) in the assay on TMD-8 cells (Homo sapiens, TMD8, 72 h) was 6.39; at BTK, 7.40; against BTK (C481S), 7.43.
As for `COCC1(C)Nc2c(cnc3[nH]cc(C(=O)c4ccc(Oc5cc(C6CC6)ccn5)cc4Cl)c23)NC1=O` (stereo not drawn) [Z73, 9-(2-chloro-4-((4-cyclopropylpyridin-2-yl)oxy)benzoyl)-2-(methoxymethyl)-2-methyl-4,7-dihydro-1H-pyrrolo[3′,2′:5,6]pyrido[3,4-b]pyrazin-3(2H)-one], the negative logarithm of the IC50 (pIC50) is 6.68 in the assay with TMD-8 cells (Homo sapiens, TMD8, 72 h); 7.64 at BTK; 7.84 at BTK (C481S).
With `COCC[C@@]1(C)Nc2c(cnc3[nH]cc(C(=O)c4ccc(Oc5ccccc5)cc4Cl)c23)NC1=O` [Z78-1], the negative logarithm of the IC50 (pIC50) is 6.54 in the assay on TMD-8 cells, 7.56 on BTK and 7.54 at BTK (C481S).
Turning to `COC[C@]1(C)Nc2c(cnc3[nH]cc(C(=O)c4ccc(Oc5cccc(C)n5)cc4Cl)c23)NC1=O` [Z124-1, (S)-9-(2-chloro-4-((6-methylpyridin-2-yl)oxy)benzoyl)-2-(methoxymethyl)-2-methyl-1,2,4,7-tetrahydro-3H-pyrrolo[3′,2′:5,6]pyrido[3,4-b]pyrazin-3-one], the negative-log IC50 (pIC50) with TMD-8 cells (TMD8, 72 h) is 6.70; at BTK it was 7.61; against BTK (C481S), 7.52.
Turning to `COC1CCC2(C1)Nc1c(cnc3[nH]cc(C(=O)c4ccc(Oc5cc(C)ccn5)cc4Cl)c13)NC2=O` (stereo not drawn) [Z126, 9′-(2-chloro-4-((4-methylpyridin-2-yl)oxy)benzoyl)-3-methoxy-4′,7′-dihydrospiro[cyclopentane-1,2′-pyrrolo[3′,2′:5,6]pyrido[3,4-b]pyrazin]-3′(1′H)-one], the pIC50 in the assay with TMD-8 cells (Homo sapiens, TMD8, 72 h) is 6.74; on BTK it was 8.24; against BTK (C481S), 7.87.
The like results for `COC[C@]1(C)Nc2c(cnc3[nH]cc(C(=O)c4ccc(Oc5cccc(C#N)c5)cc4Cl)c23)NC1=O` [Z131, (S)-3-(3-chloro-4-(2-(methoxymethyl)-2-methyl-3-oxo-2,3,4,7-tetrahydro-1H-pyrrolo[3′,2′:5,6]pyrido[3,4-b]pyrazine-9-carbonyl)phenoxy)benzonitrile] were, in that order, 6.51, 7.57 and 7.42.
As for `COC[C@]1(C)Nc2c(cnc3[nH]cc(C(=O)c4ccc(Oc5cc(Cl)cc(C)n5)cc4Cl)c23)NC1=O` [Z134, (S)-9-(2-chloro-4-((4-chloro-6-methylpyridin-2-yl)oxy)benzoyl)-2-(methoxymethyl)-2-methyl-1,2,4,7-tetrahydro-3H-pyrrolo[3′,2′:5,6]pyrido[3,4-b]pyrazin-3-one], the pIC50 was 6.59 in the assay on TMD-8 cells (Homo sapiens, TMD8, 72 h); 7.83 at BTK; 7.94 against BTK (C481S).
For the compound `C[C@@]1(COC(F)F)Nc2c(cnc3[nH]cc(C(=O)c4ccc(Oc5ccccc5)cc4Cl)c23)NC1=O` [Z139, (S)-9-(2-chloro-4-phenoxybenzoyl)-2-((difluoromethoxy)methyl)-2-methyl-1,2,4,7-tetrahydro-3H-pyrrolo[3′,2′:5,6]pyrido[3,4-b]pyrazin-3-one], the negative logarithm of the IC50 (pIC50) was 6.98 with TMD-8 cells (Homo sapiens, TMD8, 72 h); 7.43 at BTK; 7.66 against BTK (C481S).
With `COC[C@]1(C)Nc2c(cnc3[nH]cc(C(=O)c4ccc(Oc5ncccc5C)cc4Cl)c23)NC1=O` [Z140, (S)-9-(2-chloro-4-((3-methylpyridin-2-yl)oxy)benzoyl)-2-(methoxymethyl)-2-methyl-1,2,4,7-tetrahydro-3H-pyrrolo[3′,2′:5,6]pyrido[3,4-b]pyrazin-3-one], the negative logarithm of the IC50 (pIC50) is 6.80 with TMD-8 cells (Homo sapiens, TMD8, 72 h); 7.58 on BTK; 7.74 against BTK (C481S).
